The numbers were not newly measured in PubChem BioAssay AID1259409 (Chemical Carcinogenesis Research Information System (CCRIS), 2018), which cites them from elsewhere.

Each structure is given as a SMILES string. Several values for one entry are separate records, joined by “and”; a condition that tells them apart may be missing. Equal entries are not always repeated.

The subject of the data set is rodent chemically induced tumor inhibition, incidence and multiplicity. As to the kind of experiment: CCRIS tumor inhibitor studies. Particulars: Carcinogen: N-NITROBIS(2-OXOPROPYL)AMINE, 60559-38-4, Route [Inhibitor]: ORAL, Species: HAMSTER, Promoter: NONE USED.

As for `CC1=C(/C=C/C(C)=C/C=C/C(C)=C/C(=O)Nc2ccccc2)C(C)(C)CCC1`, the “tumour outcome (control, treated, inhibition, significance)” value (Dose [Inhibitor]: 0.5 OR 1.0 MMOL/KG DIET DAILY STARTING 1 WK AFTER CARCINOGEN TREATMENT AND CONTINUING THROUGH THE END OF THE STUDY (STUD, Strain/Sex: SYRIAN/FEMALE, Target Tissue: Type of Lesion: PANCREAS: DUCTULAR ADENOMA, Dose [Carcinogen]: 10 MG/KG BW ONCE) was 5/23 (22%), 11/25 (44%), -100%, not significant; the “tumour outcome (control, treated, inhibition, significance)” value (Dose [Inhibitor]: 0.5 OR 1.0 MMOL/KG DIET DAILY STARTING 1 WK AFTER CARCINOGEN TREATMENT AND CONTINUING THROUGH THE END OF THE STUDY (STUD, Strain/Sex: SYRIAN/FEMALE, Target Tissue: Type of Lesion: PANCREAS: DUCTULAR ADENOMA, Dose [Carcinogen]: 40 MG/KG BW ONCE) was 12/20 (60%), 18/26 (69%), -15%, not significant; the “tumour outcome (control, treated, inhibition, significance)” value (Dose [Inhibitor]: 0.5 OR 1.0 MMOL/KG DIET DAILY STARTING 1 WK AFTER CARCINOGEN TREATMENT AND CONTINUING THROUGH THE END OF THE STUDY (STUD, Strain/Sex: SYRIAN/FEMALE, Target Tissue: Type of Lesion: PANCREAS: DUCTULAR CARCINOMA, Dose [Carcinogen]: 10 MG/KG BW ONCE) was 6/23 (27%), 2/25 (8%), 70%, not significant; the “tumour outcome (control, treated, inhibition, significance)” value (Dose [Inhibitor]: 0.5 OR 1.0 MMOL/KG DIET DAILY STARTING 1 WK AFTER CARCINOGEN TREATMENT AND CONTINUING THROUGH THE END OF THE STUDY (STUD, Strain/Sex: SYRIAN/MALE, Target Tissue: Type of Lesion: LIVER: BENIGN TUMOR, Dose [Carcinogen]: 40 MG/KG BW ONCE) was 4/20 (20%), 12/26 (46%), -130%, not significant and 5/24 (21%), 17/39 (44%), -110%, p<0.05; the “tumour outcome (control, treated, inhibition, significance)” value (Dose [Inhibitor]: 0.5 OR 1.0 MMOL/KG DIET DAILY STARTING 1 WK AFTER CARCINOGEN TREATMENT AND CONTINUING THROUGH THE END OF THE STUDY (STUD, Strain/Sex: SYRIAN/MALE, Target Tissue: Type of Lesion: PANCREAS: DUCTULAR ADENOMA, Dose [Carcinogen]: 10 MG/KG BW ONCE) was 3/22 (14%), 14/31 (45%), -221%, p<0.05; the “tumour outcome (control, treated, inhibition, significance)” value (Dose [Inhibitor]: 0.5 OR 1.0 MMOL/KG DIET DAILY STARTING 1 WK AFTER CARCINOGEN TREATMENT AND CONTINUING THROUGH THE END OF THE STUDY (STUD, Strain/Sex: SYRIAN/MALE, Target Tissue: Type of Lesion: PANCREAS: DUCTULAR ADENOMA, Dose [Carcinogen]: 40 MG/KG BW ONCE) was 8/24 (33%), 19/37 (51%), -55%, not significant. Besides, the “tumour outcome (control, treated, inhibition, significance)” value by setting is: (Dose [Inhibitor]: 0.5 OR 1.0 MMOL/KG DIET DAILY STARTING 1 WK AFTER CARCINOGEN TREATMENT AND CONTINUING THROUGH THE END OF THE STUDY (STUD, Strain/Sex: SYRIAN/MALE, Target Tissue: Type of Lesion: PANCREAS: DUCTULAR CARCINOMA, Dose [Carcinogen]: 10 MG/KG BW ONCE) 4/22 (18%), 3/31 (10%), 44%, not significant; (Dose [Inhibitor]: 0.5 OR 1.0 MMOL/KG DIET DAILY STARTING 1 WK AFTER CARCINOGEN TREATMENT AND CONTINUING THROUGH THE END OF THE STUDY (STUD, Strain/Sex: SYRIAN/MALE, Target Tissue: Type of Lesion: PANCREAS: DUCTULAR CARCINOMA, Dose [Carcinogen]: 40 MG/KG BW ONCE) 5/24 (21%), 15/37 (40%), -90%, not significant; (Dose [Inhibitor]: 0.5 OR 1 MMOL/KG DIET DAILY STARTING 1 WK AFTER CARCINOGEN TREATMENT AND CONTINUING THROUGH THE END OF THE STUDY (STUDY, Strain/Sex: SYRIAN/FEMALE, Target Tissue: Type of Lesion: PANCREAS: DUCTULAR CARCINOMA, Dose [Carcinogen]: 40 MG/KG BW ONCE) 6/20 (30%), 7/26 (27%), 10%, not significant; (Dose [Inhibitor]: 0.5 OR 1.0 MMOL/KG/D IN DIET STARTING 1 WK AFTER CARCINOGEN TREATMENT AND CONTINUING THROUGH THE END OF THE STUDY (STUDY, Strain/Sex: SYRIAN/FEMALE, Target Tissue: Type of Lesion: LIVER: BENIGN TUMOR, Dose [Carcinogen]: 40 MG/KG BW ONCE) 4/20 (20%), 12/26 (46%), -130%, not significant; (Dose [Inhibitor]: 0.5 OR 1.0 MMOL/KG/D IN DIET STARTING 1 WK AFTER CARCINOGEN TREATMENT AND CONTINUING THROUGH THE END OF THE STUDY (STUDY, Strain/Sex: SYRIAN/FEMALE, Target Tissue: Type of Lesion: PANCREAS: DUCTULAR ADENOMA, Dose [Carcinogen]: 10 MG/KG BW ONCE) 5/23 (22%), 11/25 (44%), -100%, not significant; (Dose [Inhibitor]: 0.5 OR 1.0 MMOL/KG/D IN DIET STARTING 1 WK AFTER CARCINOGEN TREATMENT AND CONTINUING THROUGH THE END OF THE STUDY (STUDY, Strain/Sex: SYRIAN/FEMALE, Target Tissue: Type of Lesion: PANCREAS: DUCTULAR ADENOMA, Dose [Carcinogen]: 40 MG/KG BW ONCE) 12/20 (60%), 18/26 (69%), -15%, not significant. In addition, the “tumour outcome (control, treated, inhibition, significance)” value reads like this: (Dose [Inhibitor]: 0.5 OR 1.0 MMOL/KG/D IN DIET STARTING 1 WK AFTER CARCINOGEN TREATMENT AND CONTINUING THROUGH THE END OF THE STUDY (STUDY, Strain/Sex: SYRIAN/FEMALE, Target Tissue: Type of Lesion: PANCREAS: DUCTULAR CARCINOMA, Dose [Carcinogen]: 10 MG/KG BW ONCE) 6/23 (27%), 2/25 (8%), 70%, not significant; (Dose [Inhibitor]: 0.5 OR 1.0 MMOL/KG/D IN DIET STARTING 1 WK AFTER CARCINOGEN TREATMENT AND CONTINUING THROUGH THE END OF THE STUDY (STUDY, Strain/Sex: SYRIAN/FEMALE, Target Tissue: Type of Lesion: PANCREAS: DUCTULAR CARCINOMA, Dose [Carcinogen]: 40 MG/KG BW ONCE) 6/20 (30%), 7/26 (27%), 10%, not significant; (Dose [Inhibitor]: 0.5 OR 1.0 MMOL/KG/D IN DIET STARTING 1 WK AFTER CARCINOGEN TREATMENT AND CONTINUING THROUGH THE END OF THE STUDY (STUDY, Strain/Sex: SYRIAN/MALE, Target Tissue: Type of Lesion: LIVER: BENIGN TUMOR, Dose [Carcinogen]: 40 MG/KG BW ONCE) 5/24 (21%), 17/39 (44%), -110%, p<0.05; (Dose [Inhibitor]: 0.5 OR 1.0 MMOL/KG/D IN DIET STARTING 1 WK AFTER CARCINOGEN TREATMENT AND CONTINUING THROUGH THE END OF THE STUDY (STUDY, Strain/Sex: SYRIAN/MALE, Target Tissue: Type of Lesion: PANCREAS: DUCTULAR ADENOMA, Dose [Carcinogen]: 10 MG/KG BW ONCE) 3/22 (14%), 14/31 (45%), -221%, p<0.05; (Dose [Inhibitor]: 0.5 OR 1.0 MMOL/KG/D IN DIET STARTING 1 WK AFTER CARCINOGEN TREATMENT AND CONTINUING THROUGH THE END OF THE STUDY (STUDY, Strain/Sex: SYRIAN/MALE, Target Tissue: Type of Lesion: PANCREAS: DUCTULAR ADENOMA, Dose [Carcinogen]: 40 MG/KG BW ONCE) 8/24 (33%), 19/37 (51%), -55%, not significant; (Dose [Inhibitor]: 0.5 OR 1.0 MMOL/KG/D IN DIET STARTING 1 WK AFTER CARCINOGEN TREATMENT AND CONTINUING THROUGH THE END OF THE STUDY (STUDY, Strain/Sex: SYRIAN/MALE, Target Tissue: Type of Lesion: PANCREAS: DUCTULAR CARCINOMA, Dose [Carcinogen]: 10 MG/KG BW ONCE) 4/22 (18%), 3/31 (10%), 44%, not significant. Besides, where the note is “Dose [Inhibitor]: 0.5 OR 1.0 MMOL/KG/D IN DIET STARTING 1 WK AFTER CARCINOGEN TREATMENT AND CONTINUING THROUGH THE END OF THE STUDY (STUDY, Strain/Sex: SYRIAN/MALE, Target Tissue: Type of Lesion: PANCREAS: DUCTULAR CARCINOMA, Dose [Carcinogen]: 40 MG/KG BW ONCE”, the “tumour outcome (control, treated, inhibition, significance)” value is listed as 5/24 (21%), 15/37 (40%), -90%, not significant.
